Reference: ChEMBL document CHEMBL1147608, “SAR development of polycyclic guanine derivatives targeted to the discovery of a selective PDE5 inhibitor for treatment of erectile dysfunction” (Bioorg Med Chem Lett, 2004)

Columns and labels:
[1] = molecular target: T1, cGMP-specific 3',5'-cyclic phosphodiesterase (Homo sapiens, UniProt O76074)
[2] = molecular target: Phosphodiesterase, PDE1/PDE5 (Homo sapiens) (UniProt O76074+P54750+Q01064+Q14123); test: Realtive inhibition of PDE1 and PDE5; assay type: protein assay
[3] = molecular target: Phosphodiesterase 4 and 5 (PDE4 and PDE5) (Homo sapiens) (UniProt O76074+P27815+Q08499+Q07343+Q08493); test: Relative inhibition of PDE4 and PDE5; assay type: protein assay
[4] = molecular target: Phosphodiesterase 3 and 5 (PDE3 and PDE5) (Homo sapiens) (UniProt O76074+Q14432+Q13370); test: Relative inhibition of PDE3 and PDE5; assay type: protein assay
[5] = molecular target: Phosphodiesterase 2 and 5 (PDE2 and PDE5) (Homo sapiens) (UniProt O76074+O00408); test: Relative inhibition of PDE2 and PDE5; assay type: protein assay
[6] = molecular target: T1, cGMP-specific 3',5'-cyclic phosphodiesterase; test: Inhibition of human phosphodiesterase 5 at 100 nM

SMILES | IC50 [1] | also measured
CCN1C(=O)c2c(nc(OC)n2Cc2ccc(OC)c(Cl)c2)N2C1=N[C@@H]1CCC[C@@H]12 | 5 nM | 
CCSc1nc2c(n1Cc1ccc(OC)cc1)C(=O)N(CC)C1=N[C@@H]3CCC[C@@H]3N12 | 13 nM | 
CCN1C(=O)c2c(nc(Cc3ccccc3)n2Cc2ccc(Cl)cc2)N2C1=N[C@@H]1CCC[C@@H]12 | 160 nM | 
CCN1C(=O)c2c(nc(Cc3ccccc3)n2Cc2ccc(C)cc2)N2C1=N[C@@H]1CCC[C@@H]12 | 40 nM | 
CCN1C(=O)c2c(nc(C(=O)NC)n2Cc2ccc(OC)c(Cl)c2)N2C1=N[C@@H]1CCC[C@@H]12 | 2.3 nM | 
CCN1C(=O)c2c(nc(OC)n2Cc2ccc(OC)c(Br)c2)N2C[C@@H](Cc3ccccc3)N=C12 | 2.2 nM | Selectivity [2]: 4090; Selectivity [3]: 418; Selectivity [4]: 4540; Selectivity [5]: 4540
CCN1C(=O)c2c(nc(C#Cc3ccccc3)n2Cc2ccc(O)cc2)N2C1=N[C@@H]1CCC[C@@H]12 | 0.3 nM | 
CCN1C(=O)c2c(nc(C(N)=O)n2Cc2ccc(O)c(Br)c2)N2C1=N[C@@H]1CCC[C@@H]12 | 0.9 nM | 
CCN1C(=O)c2c(nc(C(F)(F)F)n2Cc2ccc(OC)cc2)N2C1=N[C@@H]1CCC[C@@H]12 | 48 nM | 
CCN1C(=O)c2c(nc(C(N)=O)n2Cc2ccc(OC)c(Cl)c2)N2C[C@@H](Cc3ccccc3)N=C12 | 2.8 nM | 
CCN1C(=O)c2c(nc(C(=O)NC)n2Cc2ccc(O)c(Cl)c2)N2C1=N[C@@H]1CCC[C@@H]12 | 1.3 nM | 
CCN1C(=O)c2c(nc(C(N)=O)n2Cc2ccc(OC)c(Br)c2)N2C1=N[C@@H]1CCC[C@@H]12 | 1.5 nM | 
CCN1C(=O)c2c(nc(OC)n2Cc2ccc(O)c(Cl)c2)N2C1=N[C@@H]1CCC[C@@H]12 | 2 nM | 
CCN1C(=O)c2c(nc(Cc3ccccc3)n2Cc2ccccc2)N2C1=N[C@@H]1CCC[C@@H]12 | 130 nM | 
CCOc1nc2c(n1Cc1ccc(O)cc1)C(=O)N(CC)C1=N[C@@H]3CCC[C@@H]3N12 | 0.9 nM | 
CCN1C(=O)c2c(nc(S(=O)(=O)CC)n2Cc2ccc(OC)cc2)N2C1=N[C@@H]1CCC[C@@H]12 |  | inhibition [6]: 31%
CCN1C(=O)c2c(nc(Cc3ccccc3)n2Cc2ccc(OC)c(Cl)c2)N2C1=N[C@@H]1CCC[C@@H]12 | 58 nM | 
CCN1C(=O)c2c(nc(Cc3ccccc3)n2Cc2ccc3ccccc3c2)N2C1=N[C@@H]1CCC[C@@H]12 |  | inhibition [6]: 32%
CCN1C(=O)c2[nH]c(Cc3ccccc3)nc2N2C1=N[C@@H]1CCC[C@@H]12 | 39 nM | 

SMILES | IC50 [1] | also measured
CCN1C(=O)c2c(nc(Cc3ccccc3)n2Cc2cccc(Cl)c2)N2C1=N[C@@H]1CCC[C@@H]12 |  | inhibition [6]: 26%
CCN1C(=O)c2c(nc(C(N)=O)n2Cc2ccc(O)cc2)N2C1=N[C@@H]1CCC[C@@H]12 | 2.1 nM | 
CCN1C(=O)c2c(nc(C#Cc3ccccc3)n2Cc2ccc(Cl)cc2)N2C1=N[C@@H]1CCC[C@@H]12 | 5 nM | 
CCN1C(=O)c2c(nc(C#Cc3ccccc3)n2Cc2ccc(OC)cc2)N2C1=N[C@@H]1CCC[C@@H]12 | 3.1 nM | 
CCN1C(=O)c2c(nc(Cc3ccccc3)n2Cc2ccc([N+](=O)[O-])cc2)N2C1=N[C@@H]1CCC[C@@H]12 |  | inhibition [6]: 8%
CCN1C(=O)c2c(nc(C(=O)OC)n2Cc2ccc(OC)cc2)N2C1=N[C@@H]1CCC[C@@H]12 | 6.8 nM | 
CCN1C(=O)c2c(nc(Cc3ccccc3)n2Cc2ccc3c(c2)OCO3)N2C1=N[C@@H]1CCC[C@@H]12 | 46 nM | 
CCSc1nc2c(n1Cc1ccc(O)cc1)C(=O)N(CC)C1=N[C@@H]3CCC[C@@H]3N12 | 1.8 nM | 
CCN1C(=O)c2c(nc(Cc3ccccc3)n2Cc2ccc(C)c(Cl)c2)N2C1=N[C@@H]1CCC[C@@H]12 |  | inhibition [6]: 27%
CCN1C(=O)c2c(nc(Cc3ccccc3)n2Cc2ccc(OC)cc2)N2C1=N[C@@H]1CCC[C@@H]12 | 20 nM | 
CCN1C(=O)c2c(nc(OC)n2Cc2ccc(OC)c(C#N)c2)N2C[C@@H](Cc3ccccc3)N=C12 | 11 nM | Selectivity [2]: 536; Selectivity [3]: 464; Selectivity [4]: 909; Selectivity [5]: 909
CCN1C(=O)c2c(nc(C(N)=O)n2Cc2ccc(OC)cc2)N2C1=N[C@@H]1CCC[C@@H]12 | 4 nM | 
CCN1C(=O)c2c(nc(OC)n2Cc2ccc(O)c(C#N)c2)N2C[C@@H](Cc3ccccc3)N=C12 | 43 nM | 
CCN1C(=O)c2c(ncn2Cc2ccc(OC)c(Br)c2)N2C1=N[C@@H]1CCC[C@@H]12 | 6.5 nM | 
CCN1C(=O)c2c(nc(C(N)=O)n2Cc2ccc(O)c(Cl)c2)N2C[C@@H](Cc3ccccc3)N=C12 | 3 nM | Selectivity [2]: 2600; Selectivity [3]: 1730; Selectivity [4]: 3330; Selectivity [5]: 3330
CCN1C(=O)c2c(nc(Cc3ccccc3)n2Cc2cccc(Br)c2)N2C1=N[C@@H]1CCC[C@@H]12 |  | inhibition [6]: 33%
CCN1C(=O)c2c(nc(C(N)=O)n2Cc2ccc(O)c(Cl)c2)N2C1=N[C@@H]1CCC[C@@H]12 | 1.1 nM | 
CCOc1nc2c(n1Cc1ccc(OC)c(Cl)c1)C(=O)N(CC)C1=N[C@@H]3CCC[C@@H]3N12 | 6.5 nM | 
CCN1C(=O)c2c(nc(OC)n2Cc2ccc(OC)c(Br)c2)N2C1=N[C@@H]1CCC[C@@H]12 | 2.8 nM | 

SMILES | IC50 [1] | also measured
CCN1C(=O)c2c(nc(C#N)n2Cc2ccc(OC)cc2)N2C1=N[C@@H]1CCC[C@@H]12 | 6.3 nM | 
CCN1C(=O)c2c(nc(C#Cc3ccccc3)n2Cc2ccccc2)N2C1=N[C@@H]1CCC[C@@H]12 | 8 nM | 
CCN1C(=O)c2c(nc(C(F)(F)F)n2Cc2ccc(O)cc2)N2C1=N[C@@H]1CCC[C@@H]12 | 7 nM | 
CCOc1nc2c(n1Cc1ccc(OC)cc1)C(=O)N(CC)C1=N[C@@H]3CCC[C@@H]3N12 | 18 nM | 
CCN1C(=O)c2c(ncn2Cc2ccc(O)c(Br)c2)N2C1=N[C@@H]1CCC[C@@H]12 | 6.3 nM | 
CCOc1nc2c(n1Cc1ccc(OC)c(Br)c1)C(=O)N(CC)C1=N[C@@H]3CCC[C@@H]3N12 | 5.4 nM | 
CCOc1nc2c(n1Cc1ccc(O)c(Cl)c1)C(=O)N(CC)C1=N[C@@H]3CCC[C@@H]3N12 | 2.1 nM | 
CCN1C(=O)c2c(nc(Cc3ccccc3)n2Cc2cccc(OC)c2)N2C1=N[C@@H]1CCC[C@@H]12 |  | inhibition [6]: 14%
CCN1C(=O)c2c(nc(Cc3ccccc3)n2Cc2cccc(C)c2)N2C1=N[C@@H]1CCC[C@@H]12 |  | inhibition [6]: 26%
CCN1C(=O)c2c(ncn2Cc2ccc(OC)cc2)N2C1=N[C@@H]1CCC[C@@H]12 | 55 nM | 
CCN1C(=O)c2c(nc(OCc3ccccc3)n2Cc2ccc(O)c(Cl)c2)N2C[C@@H](Cc3ccccc3)N=C12 | 2.1 nM | Selectivity [2]: 4760; Selectivity [3]: 2170; Selectivity [4]: 4760; Selectivity [5]: 4760
CCN1C(=O)c2c(nc(Cc3ccccc3)n2Cc2ccccc2C)N2C1=N[C@@H]1CCC[C@@H]12 |  | inhibition [6]: 18%
CCN1C(=O)c2c(nc(OC)n2Cc2ccc(O)c(Br)c2)N2C1=N[C@@H]1CCC[C@@H]12 | 1.6 nM | 
CCN1C(=O)c2c(nc(N=[N+]=[N-])n2Cc2ccc(O)cc2)N2C1=N[C@@H]1CCC[C@@H]12 | 0.61 nM | 
CCN1C(=O)c2c(nc(Cc3ccccc3)n2Cc2ccc(N)cc2)N2C1=N[C@@H]1CCC[C@@H]12 | 550 nM | 
CCN1C(=O)c2c(nc(N(C)C)n2Cc2ccc(OC)cc2)N2C1=N[C@@H]1CCC[C@@H]12 |  | inhibition [6]: 27%
CCN1C(=O)c2c(nc(OC)n2Cc2ccc(O)c(Br)c2)N2C[C@@H](Cc3ccccc3)N=C12 | 1.3 nM | Selectivity [2]: 7690; Selectivity [3]: 3770; Selectivity [4]: 7690; Selectivity [5]: 7690
CCN1C(=O)c2c(nc(N)n2Cc2ccc(O)cc2)N2C1=N[C@@H]1CCC[C@@H]12 | 22 nM | 
CCN1C(=O)c2c(nc(OC)n2Cc2ccc(OC)c(Cl)c2)N2C[C@@H](Cc3ccccc3)N=C12 | 1.6 nM | Selectivity [2]: 4380; Selectivity [3]: 394; Selectivity [4]: 6250; Selectivity [5]: 6250
